Patent US20120195938A1, “FORMULATIONS AND METHODS FOR RECOVERY FROM DENTAL SURGERY” (priority 2007, published 2012)

Tests used:
[1] = test system: BGLAP (osteocalcin); assay: RT-PCR gene expression in hMSCs: osteocalcin; settings: hMSC, growth media, melatonin 3 × 10^−7 molar, dexamethasone 1 × 10^−7 molar
[2] = test system: glycoprotein-IIβ (GPIIβ or GPIIB); assay: RT-PCR gene expression in hMSCs: GPIIB; format: cell-based, Human; settings: hMSC, growth media, melatonin 3 × 10^−7 molar, dexamethasone 1 × 10^−7 molar
Description: (§1) Human mesenchymal stem cells (hMSCs) were purchased through LONZA BIOSCIENCES. These cells were seeded at a density of approximately 7500 cells/cm^2 upon receipt. Since hMSCs spontaneously differentiate into various cell types after 8 to 9 passages, cells passaged 3 to 4 times were used for each of the examples disclosed herein. Supplemented DMEM media was refreshed every third day during culture.
(§2) Cultures of hMSCs were passaged in growth medium until a sufficient number of flasks for differentiation studies were obtained. Growth medium was removed and replaced with a variety of experimental solutions as described more fully hereinbelow. For qualitative alkaline phosphatase assays described below, the cells were seeded on collagen coated cover slips (BIOCOAT®) at 2000 cells/cm^2. A volume of 3 ml of media was placed into the wells for 5 and 15 days according to the procedures below. For the reverse-transcriptase polymerase chain reaction studies described below, the cells were cultured in their respective media for 5, 10, or 20 days.
(§3) Cells were plated and grown using the general techniques described in Examples 1 and 2. The expression of numerous genes was assessed for cells at Days 5, 10, and 20. Cells were grown in the media as detailed in Tables 1 and 2 below. The expression of the indicated genes was assessed and reported as x-fold increases over the level of normalized gene expression to glyceraldehyde-3-phosphate dehydrogenase (GAPDH) in cells cultured in grown medium (Table 1).
The genes of interest were selected based upon their appearance in platelets and mesenchymal stem cells differentiating into osteoblasts. Glyceraldehyde-3 phosphate dehydrogenase (GAPDH) is a well characterized housekeeper gene for differentiating hMSCs. The primers used were: forward: 5′ […] (SEQ ID No. 1), reverse: […] (SEQ ID No. 2). The gene for bone sialoprotein (BSP) was chosen because it is expressed during the differentiation of hMSCs, prior to the mineralization phase, but represents a mature functioning osteoblast. The primers were forward: 5′ […] (SEQ ID No. 3), reverse: […] (SEQ ID No. 4). The gene BGLAP (osteocalcin) was chosen because it is definitive marker for functioning osteoblasts at 21 days. The primers were: forward: 5′ […] (SEQ ID No. 5), reverse: […] (SEQ ID No. 6). The gene for glycoprotein-IIβ (GPIIβ or GPIIB) was chosen because it is expressed in developing megakaryocytes and found in platelets. The primers were: forward: […] (SEQ ID No. 7), reverse: […] (SEQ ID No. 8).
The reaction protocol was completed in a BIO-RAD CHROMO4 Real Time Detection System using the iScript One-Step RT-PCR Kit (BIO-RAD, Hercules, Calif.). Each reaction mixture contained 100 nM of RNA. […] The data was collected and analyzed using the MC OPTICON software.

[3] = test system: Runx2; assay: RT-PCR gene expression in hMSCs: Runx2; format: cell-based, Human; settings: hMSC, growth media, melatonin 3 × 10^−7 molar, dexamethasone 1 × 10^−7 molar
Description: as §1, §2, §3
The reaction protocol was completed in a BIO-RAD CHROMO4 Real Time Detection System using the iScript One-Step RT-PCR Kit (BIO-RAD, Hercules, Calif.). Each reaction mixture contained […] of RNA. The 50 μL reaction mixture was placed in the thermal cycler and incubated at 55° C. for 10 minutes, 5 minutes at 95° C. for cDNA synthesis and reverse transcriptase inactivation. The PCR cycling was completed after 45 cycles; 10 seconds at 95° C., 30 seconds at 57° C. A melt curve analysis was completed; 1 minute at 95° C., 1 minute at 55° C. and 10 seconds at 55° C. for 80 cycles, increasing 0.5° C. each cycle. The data was collected and analyzed using the MC OPTICON software.
For the second PCR run, the gene Runx2 was included instead of BSP. Runx2 is a transcription factor required for all remaining steps of osteoblastic differentiation to occur. Accordingly, it is a specific early marker of osteoblastic differentiation.

[4] = test system: alkaline phosphatase activity in hMSC cultures; assay: Quantitative alkaline phosphatase assay in hMSC cultures; format: cell-based, Human; settings: differentiation medium, dexamethasone 1×10^−7 M, melatonin 3×10^−7 M, 3.5% (v/v) PRP
Description: Human mesenchymal stem cells (hMSCs) were purchased through LONZA BIOSCIENCES. These cells were seeded at a density of approximately 7500 cells/cm^2 upon receipt. Since hMSCs spontaneously differentiate into various cell types after 8 to 9 passages, cells passaged 3 to 4 times were used for each of the examples disclosed herein. Supplemented DMEM media was refreshed every third day during culture. Cultures of hMSCs were passaged in growth medium until a sufficient number of flasks for differentiation studies were obtained. Growth medium was removed and replaced with a variety of experimental solutions as described more fully hereinbelow. For qualitative alkaline phosphatase assays described below, the cells were seeded on collagen coated cover slips (BIOCOAT®) at 2000 cells/cm^2. A volume of 3 ml of media was placed into the wells for 5 and 15 days according to the procedures below. […] At 5 days and 15 days, cultures in each condition were quantitatively assessed for alkaline phosphatase activity (μg of alkaline phosphatase per mL of solution). Quantitative alkaline phosphatase assays (ANASPEC, California) were completed according to manufacturers' instructions. […] The plate was incubated at room temperature for 30 minutes and the developing color was measured immediately using a BIO-TEK KINETIC MICROPLATE READER Model E[…] […]

[5] = test system: human periodontal ligament cells; settings: media supplemented; Hayami et al., Bone (2007); cited from earlier work

alkaline phosphatase activity ([4]; Day 5, FIG. 1B) | alkaline phosphatase activity ([4]; Day 15, FIG. 1B) | Compound | Osteocalcin mRNA expression, x-fold increase compared to untreated growth control ([1]; Day 5, n = 3) | Osteocalcin mRNA expression, x-fold increase compared to untreated growth control ([1]; Day 10, n = 3) | Osteocalcin mRNA expression, x-fold increase compared to untreated growth control ([1]; Day 20, n = 3) | GPIIB mRNA expression, x-fold increase compared to untreated growth control ([2]; Day 10, n = 3) | GPIIB mRNA expression, x-fold increase compared to untreated growth control ([2]; Day 20, n = 3) | Runx2 mRNA expression, x-fold increase compared to untreated growth control ([3]; Day 5, n = 3) | Runx2 mRNA expression, x-fold increase compared to untreated growth control ([3]; Day 10, n = 3) | Runx2 mRNA expression, x-fold increase compared to untreated growth control ([3]; Day 20, n = 3) | Osteocalcin mRNA expression, x-fold increase compared to untreated growth control ([1]; Day 5, n = 3, listed as melatonin) | osteoblast-specific cell markers in culture [5]
 |  | C[C@@H]1C[C@H]2[C@@H]3CCC4=CC(=O)C=C[C@]4(C)[C@@]3(F)[C@@H](O)C[C@]2(C)[C@@]1(O)C(=O)CO [Dexamethasone, dexamethasone] | 70.22 x-fold | 142.21 x-fold | 998.82 x-fold | 11.59 x-fold | 4993.43 x-fold | 138.04 x-fold | 4.16 x-fold | 15.29 x-fold |  | 
showed an effect | elevated alkaline phosphatase activity | COc1ccc2[nH]cc(CCNC(C)=O)c2c1 [Melatonin, melatonin] | 260.38 x-fold | 1269.3 x-fold | 1295.79 x-fold | 968.86 x-fold | 2432.97 x-fold | 269.75 x-fold | 14.39 x-fold | 129.83 x-fold | high levels | 
 |  | C[C@@H]1C[C@H]2[C@@H]3CCC4=CC(=O)C=C[C@]4(C)[C@@]3(F)[C@@H](O)C[C@]2(C)[C@@]1(O)C(=O)COP(=O)(O)O [dexamethasone sodium phosphate solution, Dexamethasone sodium phosphate] |  |  |  |  |  |  |  |  |  | increased osteoblast-specific cell markers
